Values of other authors in US20070044813A1, “Use of snuff for treatment of house dust mite allergy and/or cigarette smoke allergy” (priority 2005, published 2007).
Where a name gives a salt, the structure may show the parent alone.

Tested on: symptoms of house dust mite allergy and cigarette smoke allergy
Settings: conventional medicaments; control the symptoms only partly

SMILES | alleviation of the symptoms
Clc1ccc2c(c1)CCc1cccnc1C2=C1CCNCC1 [desloratadine] | around 40%
CC(C)(C(=O)O)c1ccc(C(O)CCCN2CCC(C(O)(c3ccccc3)c3ccccc3)CC2)cc1 (centres unmarked) [fexofenadine hydrochloride] | around 40%
